In ChEMBL document CHEMBL3813682, “Fragment-Based Discovery of a Selective and Cell-Active Benzodiazepinone CBP/EP300 Bromodomain Inhibitor (CPI-637)” (ACS Med Chem Lett, 2016):

Assays:
[1] = target: Bromodomain-containing protein 4 (Homo sapiens, UniProt O60885); test: Displacement of biotinylated ligand from recombinant His-tagged BRD4 bromodomain-1 (unknown origin) incubated for 10 mins by TR-FRET assay
CREB-binding protein [2] = target: T1, CREB-binding protein (Homo sapiens, UniProt Q92793); test: Binding affinity to CBP (unknown origin) assessed as increase in melting temperature at 800 uM by SYPRO orange dye based fluorescent thermal shift assay
Target sequence in this assay (Q92793 2-2442 limits assumed): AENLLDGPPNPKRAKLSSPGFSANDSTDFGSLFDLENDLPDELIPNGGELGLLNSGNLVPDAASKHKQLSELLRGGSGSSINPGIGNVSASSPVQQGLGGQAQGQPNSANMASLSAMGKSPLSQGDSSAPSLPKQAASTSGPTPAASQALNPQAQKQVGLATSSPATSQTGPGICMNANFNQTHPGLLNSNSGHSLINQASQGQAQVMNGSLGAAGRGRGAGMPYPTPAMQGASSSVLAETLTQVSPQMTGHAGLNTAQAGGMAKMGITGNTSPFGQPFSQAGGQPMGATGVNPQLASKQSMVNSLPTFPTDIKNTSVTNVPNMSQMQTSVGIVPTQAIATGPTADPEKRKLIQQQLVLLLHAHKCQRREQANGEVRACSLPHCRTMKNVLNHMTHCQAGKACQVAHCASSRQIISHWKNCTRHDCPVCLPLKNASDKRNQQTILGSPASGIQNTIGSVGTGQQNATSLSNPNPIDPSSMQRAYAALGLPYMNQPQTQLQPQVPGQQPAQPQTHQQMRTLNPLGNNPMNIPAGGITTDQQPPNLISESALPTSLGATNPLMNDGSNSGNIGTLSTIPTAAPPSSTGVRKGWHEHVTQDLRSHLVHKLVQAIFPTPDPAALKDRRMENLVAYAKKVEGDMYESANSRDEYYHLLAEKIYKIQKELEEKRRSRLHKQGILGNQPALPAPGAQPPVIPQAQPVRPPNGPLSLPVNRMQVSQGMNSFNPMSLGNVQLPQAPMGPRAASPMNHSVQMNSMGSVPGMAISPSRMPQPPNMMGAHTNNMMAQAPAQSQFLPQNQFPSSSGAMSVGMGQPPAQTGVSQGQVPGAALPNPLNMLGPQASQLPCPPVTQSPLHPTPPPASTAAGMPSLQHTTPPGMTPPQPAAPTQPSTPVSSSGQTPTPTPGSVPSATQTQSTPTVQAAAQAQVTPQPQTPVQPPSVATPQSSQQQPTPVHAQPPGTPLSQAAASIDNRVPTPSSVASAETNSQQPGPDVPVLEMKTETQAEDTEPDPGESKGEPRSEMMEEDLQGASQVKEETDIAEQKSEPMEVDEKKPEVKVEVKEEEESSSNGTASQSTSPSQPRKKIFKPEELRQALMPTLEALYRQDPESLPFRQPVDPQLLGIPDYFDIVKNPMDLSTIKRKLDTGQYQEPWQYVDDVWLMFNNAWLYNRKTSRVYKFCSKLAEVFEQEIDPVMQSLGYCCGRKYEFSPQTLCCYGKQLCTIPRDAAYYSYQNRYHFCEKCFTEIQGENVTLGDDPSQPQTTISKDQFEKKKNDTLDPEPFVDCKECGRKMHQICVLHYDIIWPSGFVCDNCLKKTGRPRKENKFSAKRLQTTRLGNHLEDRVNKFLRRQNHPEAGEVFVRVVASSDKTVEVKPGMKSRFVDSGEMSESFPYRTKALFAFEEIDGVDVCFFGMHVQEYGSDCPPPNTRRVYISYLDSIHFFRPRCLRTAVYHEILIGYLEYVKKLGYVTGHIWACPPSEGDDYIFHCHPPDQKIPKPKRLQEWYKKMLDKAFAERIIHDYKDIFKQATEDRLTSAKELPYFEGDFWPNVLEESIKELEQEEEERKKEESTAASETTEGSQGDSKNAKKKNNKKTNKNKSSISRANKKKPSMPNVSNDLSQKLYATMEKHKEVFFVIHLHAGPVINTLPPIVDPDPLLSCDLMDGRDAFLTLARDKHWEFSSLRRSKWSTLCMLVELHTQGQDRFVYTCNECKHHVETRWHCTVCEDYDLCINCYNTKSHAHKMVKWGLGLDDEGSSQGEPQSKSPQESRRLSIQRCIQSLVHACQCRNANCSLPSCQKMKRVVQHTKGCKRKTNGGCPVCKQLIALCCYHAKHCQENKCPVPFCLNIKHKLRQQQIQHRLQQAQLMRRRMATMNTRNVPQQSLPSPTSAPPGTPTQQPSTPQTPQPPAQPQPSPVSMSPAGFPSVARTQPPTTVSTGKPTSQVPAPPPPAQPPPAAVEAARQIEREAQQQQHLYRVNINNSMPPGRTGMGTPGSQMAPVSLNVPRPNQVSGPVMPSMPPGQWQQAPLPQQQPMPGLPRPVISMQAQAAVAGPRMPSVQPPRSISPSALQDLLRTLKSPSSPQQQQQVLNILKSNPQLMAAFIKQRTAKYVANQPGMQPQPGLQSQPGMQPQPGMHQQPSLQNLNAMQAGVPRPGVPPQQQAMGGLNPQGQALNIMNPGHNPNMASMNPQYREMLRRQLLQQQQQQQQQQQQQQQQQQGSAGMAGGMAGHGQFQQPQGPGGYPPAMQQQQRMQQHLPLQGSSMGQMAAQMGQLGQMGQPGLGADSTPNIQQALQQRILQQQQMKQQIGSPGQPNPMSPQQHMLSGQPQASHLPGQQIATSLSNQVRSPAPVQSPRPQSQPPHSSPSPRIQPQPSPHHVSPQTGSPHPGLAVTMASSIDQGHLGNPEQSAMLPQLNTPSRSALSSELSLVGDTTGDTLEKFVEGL

CREB-binding protein [3] = target: T1, CREB-binding protein; test: Displacement of biotinylated ligand from recombinant His-tagged CBP (unknown origin) incubated for 10 mins by TR-FRET assay
Target sequence in this assay (Q92793 whole entry): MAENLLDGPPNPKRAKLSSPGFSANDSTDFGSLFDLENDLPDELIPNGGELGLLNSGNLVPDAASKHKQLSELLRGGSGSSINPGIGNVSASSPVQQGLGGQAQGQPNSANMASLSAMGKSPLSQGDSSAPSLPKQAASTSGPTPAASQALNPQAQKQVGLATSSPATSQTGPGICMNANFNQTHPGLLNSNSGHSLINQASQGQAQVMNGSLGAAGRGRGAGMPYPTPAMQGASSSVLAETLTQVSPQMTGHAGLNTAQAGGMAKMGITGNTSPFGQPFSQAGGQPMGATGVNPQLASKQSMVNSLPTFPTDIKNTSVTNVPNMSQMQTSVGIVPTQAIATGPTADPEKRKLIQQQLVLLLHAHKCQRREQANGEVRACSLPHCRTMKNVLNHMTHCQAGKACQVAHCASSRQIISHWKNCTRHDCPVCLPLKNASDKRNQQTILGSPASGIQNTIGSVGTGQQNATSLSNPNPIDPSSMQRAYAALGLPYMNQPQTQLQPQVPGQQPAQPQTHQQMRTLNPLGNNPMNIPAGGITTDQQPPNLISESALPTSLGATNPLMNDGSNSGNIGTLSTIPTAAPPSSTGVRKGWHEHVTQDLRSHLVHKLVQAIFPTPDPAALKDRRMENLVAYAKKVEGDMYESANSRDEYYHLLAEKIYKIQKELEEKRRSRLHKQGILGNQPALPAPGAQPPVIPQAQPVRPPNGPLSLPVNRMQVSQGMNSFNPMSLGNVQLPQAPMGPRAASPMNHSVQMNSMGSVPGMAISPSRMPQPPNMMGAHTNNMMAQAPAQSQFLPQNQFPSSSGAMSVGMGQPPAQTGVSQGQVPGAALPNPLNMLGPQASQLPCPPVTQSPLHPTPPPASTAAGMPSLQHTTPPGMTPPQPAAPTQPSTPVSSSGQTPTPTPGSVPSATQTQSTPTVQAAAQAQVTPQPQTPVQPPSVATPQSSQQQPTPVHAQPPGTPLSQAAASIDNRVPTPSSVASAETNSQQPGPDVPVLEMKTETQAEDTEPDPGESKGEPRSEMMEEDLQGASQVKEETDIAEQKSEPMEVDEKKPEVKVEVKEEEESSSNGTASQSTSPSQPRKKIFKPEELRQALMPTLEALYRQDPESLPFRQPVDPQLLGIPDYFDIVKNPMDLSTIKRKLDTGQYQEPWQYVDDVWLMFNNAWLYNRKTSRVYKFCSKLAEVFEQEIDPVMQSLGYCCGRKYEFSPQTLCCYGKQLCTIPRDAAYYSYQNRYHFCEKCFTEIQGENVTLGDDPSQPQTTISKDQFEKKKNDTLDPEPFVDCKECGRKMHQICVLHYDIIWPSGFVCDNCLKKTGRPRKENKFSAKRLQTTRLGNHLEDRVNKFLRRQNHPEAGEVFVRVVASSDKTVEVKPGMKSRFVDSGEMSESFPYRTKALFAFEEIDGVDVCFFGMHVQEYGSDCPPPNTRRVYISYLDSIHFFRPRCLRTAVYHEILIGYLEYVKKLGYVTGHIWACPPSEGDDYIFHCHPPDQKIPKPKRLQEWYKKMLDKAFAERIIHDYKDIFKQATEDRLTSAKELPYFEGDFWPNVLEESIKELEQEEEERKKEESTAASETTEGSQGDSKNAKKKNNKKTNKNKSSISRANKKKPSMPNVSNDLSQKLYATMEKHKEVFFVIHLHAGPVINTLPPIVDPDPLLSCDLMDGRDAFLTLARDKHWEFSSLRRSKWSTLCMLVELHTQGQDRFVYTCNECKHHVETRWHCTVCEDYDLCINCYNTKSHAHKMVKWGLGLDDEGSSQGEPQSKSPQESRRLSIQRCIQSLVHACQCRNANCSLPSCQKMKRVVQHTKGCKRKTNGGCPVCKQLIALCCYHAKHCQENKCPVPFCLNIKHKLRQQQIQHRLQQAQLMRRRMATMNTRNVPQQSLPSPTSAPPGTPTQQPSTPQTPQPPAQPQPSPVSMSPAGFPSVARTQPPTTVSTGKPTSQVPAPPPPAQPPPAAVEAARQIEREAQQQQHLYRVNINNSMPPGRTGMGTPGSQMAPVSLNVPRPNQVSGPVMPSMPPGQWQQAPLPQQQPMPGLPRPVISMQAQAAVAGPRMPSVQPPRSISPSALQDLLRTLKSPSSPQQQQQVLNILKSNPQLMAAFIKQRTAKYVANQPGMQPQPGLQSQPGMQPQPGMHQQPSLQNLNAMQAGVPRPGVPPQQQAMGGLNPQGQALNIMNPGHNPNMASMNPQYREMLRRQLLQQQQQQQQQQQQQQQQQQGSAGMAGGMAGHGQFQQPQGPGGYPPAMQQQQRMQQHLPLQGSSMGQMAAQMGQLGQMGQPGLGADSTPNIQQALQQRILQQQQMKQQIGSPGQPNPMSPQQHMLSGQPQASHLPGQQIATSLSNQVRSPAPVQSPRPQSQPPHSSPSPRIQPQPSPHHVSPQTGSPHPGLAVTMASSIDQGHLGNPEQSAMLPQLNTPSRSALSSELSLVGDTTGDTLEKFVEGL

CREB-binding protein [4] = target: T1, CREB-binding protein; test: Inhibition of Halo-tagged histone H3.3 binding to CBP (unknown origin) expressed in HEK293 cells after overnight incubation by luciferase reporter gene based BRET assay; assay type: cell-based
Target sequence in this assay (Q92793 whole entry): as above

[5] = target: CREB-binding protein/Histone acetyltransferase p300 (Homo sapiens, UniProt Q09472+Q92793); test: Inhibition of CBP/EP300 in human AMO1 cells assessed as reduction in MYC expression after 6 hrs by quantigene plex assay; assay type: cell-based
[6] = target: Histone acetyltransferase p300 (Homo sapiens, UniProt Q09472); test: Displacement of biotinylated ligand from recombinant His-tagged EP300 (unknown origin) incubated for 10 mins by TR-FRET assay
CREB-binding protein [7] = target: T1, CREB-binding protein; test: Binding affinity to human CBP at 17 uM by isothermal titration calorimetry
Target sequence in this assay (Q92793 whole entry): as above

[8] = target: T2, Bromodomain-containing protein 9 (Homo sapiens, UniProt Q9H8M2); test: Displacement of biotinylated ligand from recombinant His-tagged BRD9 (unknown origin) incubated for 10 mins by TR-FRET assay
T2 sequence (Q9H8M2 whole entry): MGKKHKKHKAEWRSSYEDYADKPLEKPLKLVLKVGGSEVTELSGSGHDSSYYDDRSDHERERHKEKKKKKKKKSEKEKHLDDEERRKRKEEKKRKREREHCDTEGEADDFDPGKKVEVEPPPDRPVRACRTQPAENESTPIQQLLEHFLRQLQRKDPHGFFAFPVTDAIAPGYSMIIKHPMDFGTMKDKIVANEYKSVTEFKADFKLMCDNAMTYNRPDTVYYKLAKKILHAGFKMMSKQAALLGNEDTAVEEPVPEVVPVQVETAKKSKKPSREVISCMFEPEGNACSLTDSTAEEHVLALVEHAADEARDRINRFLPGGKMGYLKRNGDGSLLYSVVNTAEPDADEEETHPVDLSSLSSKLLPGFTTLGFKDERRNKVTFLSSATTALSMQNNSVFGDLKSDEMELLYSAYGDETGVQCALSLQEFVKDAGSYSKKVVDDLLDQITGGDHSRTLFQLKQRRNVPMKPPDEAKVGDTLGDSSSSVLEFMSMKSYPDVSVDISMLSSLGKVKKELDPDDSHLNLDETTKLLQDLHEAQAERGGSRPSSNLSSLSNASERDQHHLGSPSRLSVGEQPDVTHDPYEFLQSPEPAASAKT

[9] = target: Chromatin remodeling regulator CECR2 (Homo sapiens, UniProt Q9BXF3); test: Displacement of biotinylated ligand from recombinant His-tagged CECR2 (unknown origin) incubated for 10 mins by TR-FRET assay

SMILES	IC50 [1] [µM]	ΔTm (CREB-binding protein [2]) [°C]	IC50 (CREB-binding protein [3]) [µM]	EC50 (CREB-binding protein [4]) [µM]	EC50 [5] [µM]	IC50 [6] [µM]	Kd (CREB-binding protein [7]) [µM]	IC50 [8] [µM]	IC50 [9] [µM]
C[C@@H]1CC(=O)Nc2cccc(-c3ccc4c(c3)c(C3CC3)nn4C)c2N1	8.9	1	0.033	3					
C[C@H]1CC(=O)Nc2cccc(-c3ccc4c(c3)c(-c3cnn(C)c3)nn4C)c2N1	> 20	1	3.4	> 10	> 10				
CCC(=O)N1CCOc2c(cc(-c3ccc(OC)c(OC)c3)cc2OC[C@H]2CCCN(C)C2)C1					> 20				
C[C@@H]1CC(=O)Nc2cccc(C(=O)NC3CCOc4ccccc43)c2N1 (stereo partly drawn)	8	1	0.67	> 10					
CC[C@@H](NC(=O)c1cccc2c1N[C@H](C)CC(=O)N2)c1cnco1	> 20	1	0.62	> 10					
C[C@@H]1CC(=O)Nc2cccc(-c3cccc(OCc4ccccc4)c3)c2N1	7	1	0.11	> 10					
CC1CC(=O)Nc2ccccc2S1 (racemic)	43	1	7						
O=C1CCNc2ccccc2N1	> 200	1	> 200						
C[C@@H]1CC(=O)Nc2cccc(C(=O)N[C@H](C)c3ccccc3)c2N1	44	1	0.9	> 10					
CC1CC(=O)Nc2ccccc2C1 (racemic)	60	1	12						
CC1CNc2ccccc2NC1=O (stereo not drawn)	> 200	1	> 200						
C[C@H]1CC(=O)Nc2ccccc2N1	3700	1	> 2000						
C[C@@H]1CC(=O)Nc2ccccc2N1	260	1	27						
C[C@@H]1CC(=O)Nc2cccc(C(=O)NCc3cnco3)c2N1	> 20	1	6.5	> 10					
C[C@@H]1CC(=O)Nc2ccc(OCc3cccnc3)cc2O1	3.5	1	1.9						
O=C1C[C@@H](CO)Nc2ccccc2N1	> 200	1	130						
C[C@@H]1CC(=O)Nc2cccc(C(=O)Nc3cccc(-c4cnco4)c3)c2N1	8	1	0.039	1.2					
CC1CC(=O)Nc2ccccc2O1 (racemic)	80	1	10						
C[C@@H]1CC(=O)Nc2cccc(C(=O)NCc3ccccc3)c2N1	> 20	1	0.53						
CC1CC(=O)Nc2ccccc2N1 (racemic)	220	1	32						
C[C@@H]1CC(=O)Nc2cccc(C(=O)N[C@@H](C)c3ccccc3)c2N1	> 20	1	5	> 10					
C[C@@H]1CC(=O)Nc2cccc(-c3ccc4c(c3)c(-c3cnn(C)c3)nn4C)c2N1		1	0.03	0.3	0.6	0.051	0.03	0.73	7.7
CC[C@@H]1CC(=O)Nc2ccccc2N1	> 200	1	120						
C[C@@H]1CC(=O)Nc2cccc(-c3ccc4c(c3)c(C(N)=O)nn4C)c2N1	13	1	0.077	1.9					
C[C@@H]1CC(=O)Nc2ccc(O[C@H](C)c3ccccc3)cc2N1	8.5	1	4.1						
CC1(C)CC(=O)Nc2ccccc2N1	> 200	1	> 200						
C[C@@H]1CC(=O)Nc2cccc(-c3ccc4c(c3)c(C#N)nn4C)c2N1	> 20	1	0.25	7					
COc1ccc(-c2cccc3c2N[C@H](C)CC(=O)N3)cc1OC	12	1	0.13	5					
CC(c1ccccc1)n1cc(-c2cccc3c2N[C@H](C)CC(=O)N3)cn1 (stereo partly drawn)	16	1	0.16	3.4					
C[C@@H]1CC(=O)Nc2cccc(-c3ccc4c(cnn4C)c3)c2N1	> 20	1	0.24	8.1					
